Entries after “also recorded” stand apart in the source; their conditions may differ.
Key:
Assay type in all cases: cell-based
[1] = test system: IL-1β-induced IL-6 secretion by A549 lung cells; test: IL-1β-induced IL-6 secretion by A549 lung cells (AlphaLISA); conditions: 10 μM
Text: A) Correlation of correlation (COC) plots where each point represents the Pearson correlation coefficient, r, between a distinct gene expression or GR-peptide interaction assay with assays indicated on the x and y axes. B) The effects of all tested compounds on IL-1β-induced secretion of IL-6 (y axes) and GC-regulated phenotypes indicated on the x axes. C) The effects of all tested compounds on IL-1β-induced secretion of IL-6 (y axis) and bone mineralization (x axis). D) IL-1β-induced IL-6 production by A549 cells treated with 10 μM of the indicated compounds was compared by AlphaLISA. E-H) Myoblasts were assayed as described in FIG. 8. I) Representative myoblasts imaged during the mitochondrial potential assay. J) Plasma TNFα levels of C57BL/6 male mice treated pretreated with the indicated ligands. K) Changes in lean mass of mice in panel J were determined by whole-body NMR after an additional 18 h LPS treatment. Data shown are mean+SEM.
In order to understand whether effects on skeletal muscle could be dissociated from anti-inflammatory effects of the ligands, we profiled the compounds for suppression of IL1β-induced IL-6 secretion by A549 lung cells. Examining the correlations between assays can be used to identify dissociated assays that selectively correlate with a given phenotype, predicting discovery of dissociated ligands. […] We call this a correlation of correlations (COC) plot. […] These include recruitment of NCOA2 and NCOA3 peptides, coactivators that we and others have shown to be required for GC-dependent suppression of inflammation in different cell types (FIG. 11, A). However, for the mitochondrial assay and IL-6, there are dissociated assays shown by points that are far out from the regression line in the COC plot (FIG. 7, A). For example, interaction of CHD9 with GR predicted mitochondrial activity but not Glut4 translocation (FIG. 11, B), while interaction with the CENPR peptide selectively predicted effects on Glut4 translocation (FIG. 11, C). […] Assays that correlated with effects of the ligands on GR nuclear translocation were also highly correlated with Glut4 translocation and suppression of IL-6 secretion (FIG. 11, F). Therefore, the COC curves provide a way to identify common signaling mechanisms between different GR target tissues and signaling pathways.

[2] = test system: mitochondrial activity, pAKT, protein synthesis, and bone; test: Compound profiling platform, overall profile (FIG. 15); conditions: 10 uM
Experimental: N=4-6 from two different experiments. […] D) Mitochondrial activity was measured in myoblasts using high content imaging with mitotracker dye after 24 treatment. New amino acid incorporation was measured with LICOR in cell western for puromycin (SunSet assay). […] N=3, mean+SEM. […] N=4, mean+SEM, 2-way ANOVA.
To avoid such effects on myogenesis, we switched myoblasts to differentiation media, and then on day 4, added 10 μM cytarabine, a chemotherapy agent that kills dividing cells, and then adding GCs on day 6 or 7 and completing assays in day 8 (FIG. 8).
Physiologically, the effects of GCs on protein balance and Glut4 translocation vary in vivo depending upon the stressor. For example, GCs mediate atrophy in response to fasting but not exercise. […] To assess protein degradation, we measured chymotrypsin-like proteasomal activity (FIG. 2, A). The activating phosphorylation of AKT at Thr308 (pAKT) was measured using a LI-COR In-Cell Western assay (FIG. 2, B and C). The rate-limiting step in insulin-mediated glucose uptake is the translocation of the glucose transporter, Glut4, to the surface membrane, which we also measured by In-Cell Western without permeabilizing the myotubes (FIG. 2, D). Surface Sensing of Translation (SUnSET) (Schmidt et al., Nat Methods 6, 275-277, 2009) assay was used to measure protein synthesis by In-Cell Western, following treatment of myotubes with a low dose of puromycin, which incorporates into translating proteins, but at a low enough level to provide a readout for global protein synthesis (FIG. 2, E). Lastly, we developed a high-content imaging assay in myoblasts stained with a MitoTracker dye, so that individual mitochondrial networks could be visualized with adequate resolution to quantitate area, segmentation, branching, and fluorescence intensity which is a measure of mitochondrial membrane potential (ψm).
Additional studies were performed to assess activities of the various compounds identified from the previous profiling.

[3] = test system: primary human osteoblasts; test: Osteoblast mineralization (Alizarin Red S) from mesenchymal stem cells
Experimental: A) Each dot represents the effects of a compound in the indicated assays at 10 uM. N=4-6 from two different experiments. […] C) SR11466 is efficacious at inhibiting IL-6 secretion from A549 cells. C-E). […] D) Mitochondrial activity was measured in myoblasts using high content imaging with mitotracker dye after 24 treatment. New amino acid incorporation was measured with LICOR in cell western for puromycin (SunSet assay). E) top, MMTV-luciferase reporter data. N=3, mean+SEM. Bottom, Mineralization of primary human OBs was assayed after two weeks of differentiation from MSC and two weeks of mineralization. N=4, mean+SEM, 2-way ANOVA.
As a further test for dissociation, the compounds were profiled in primary human osteoblasts for effects on osteogenesis during 4 weeks of differentiation from mesenchymal stem cells. Specifically, osteoblast mineralization was examined as follows. Human mesenchymal stem cells (MSCs) at passage 2 were maintained in growth media consisted of alpha-MEM (Life Technologies, 32561-037) supplemented with 17% FBS (Sigma-Aldrich, 12303C), 2 mM L-glutarnine (Life Technologies, 25030-081), and 100 units/mL penicillin/streptomycin (Life Technologies, 15140-122). Effect of glucocorticoid receptor modulators on osteogenic differentiation of MSCs was quantified using Alizarin Red S (Sigma-Aldrich, A5533) staining. Briefly, human MSCs were seeded in the middle 8 wells of 48-well plates at plating density of 10,000 cells per well. PBS (Life Technologies, 10010-031) was added to surrounding wells to reduce evaporation of media in the middle wells during prolonged incubation. 24 h later, growth media was replaced by osteogenic induction media (OIM) consisted of low-glucose DMEM (Life Technologies, 10567-014) supplemented with 10% FBS (Sigma-Aldrich. 12303C), 50 μg/ml L-ascorbic-2-phosphate (Sigma-Aldrich, A8960), 10 mM β-glyceroiphosphate (Sigma-Aldrich, G9891), and glucocorticoid modulators. OIM containing test compounds was replaced every week. At the end of 2 weeks, monolayers were washed with PBS (Life Technologies, 10010-031), incubated in Richard-Allan Scientific™ Neutral Buffered Formalin (10%) (Thermo Scientific, 5725) for 2 h at room temperature, washed with deionized water and stained with Alizarin Red S for 30 min at room temperature. Monolayers were then rinsed 3×with deionized water until clear, stain was then extracted with 10% (w/v) cetylpyridinium chloride (Sigma-Aldrich, C0732) in 10 mM sodium phosphate (Sigma, S5011 and S5136), pH 7.0 for 15 min at room temperature and the amount of extracted dye quantified spectroscopically at 562 nm. Spectroscopic analysis performed using a synergy™ NEO HTS Multi-Mode Microplate Reader (BioTek Instruments, Inc.).

| SMILES | inhibition of IL-1β-induced IL-6 secretion (anti-inflammatory) [1] | overall profile in compound profiling (anabolic effects, agonism) [2] | effect on mineralization (bone) [3] |
| --- | --- | --- | --- |
| C=CCOC1CC2(C)C(CCC2(O)C#CC)C2CCc3cc(C(=O)Nc4cccnc4C)ccc3C12 (stereo not drawn) [SR11466] | as efficiently as Dex; also recorded: fully inhibiting IL-6 secretion; also recorded: efficacious; also recorded: inhibited IL-6 secretion as efficiently as dexamethasone | anti-inflammatory but muscle sparing; also recorded: anabolic effects | modest improvements on mineralization |
| CC#CC1(O)CCC2C3CCc4cc(C(=O)Nc5cnccc5C)ccc4C3C(O)CC21C (stereo not drawn) [SR15421] | anti-inflammatory | anabolic effects | completely bone sparing |
| CC#CC1(O)CCC2C3CCc4cc(C(=O)Nc5cccnc5C)ccc4C3C(OCc3ccccc3Cl)CC21C (stereo not drawn) [SR16024] | partially inhibited; also recorded: weakly anti-inflammatory | more antagonistic SGRMs; also recorded: anabolic effects | bone sparing |
| CC#CC1(O)CCC2C3CCc4cc(C(=O)Nc5cccnc5C)ccc4C3C(OCc3ccc(Cl)cc3)CC21C (stereo not drawn) [SR16025] | weakly anti-inflammatory | more antagonistic SGRMs; also recorded: anabolic effects | more than quadrupled; also recorded: quadruple |

— patent US20230263808A1 (UNIVERSITY OF FLORIDA RESEARCH FOUNDATION, INCORPORATED, priority 2020, published 2023)
